In the RepoRT retention time repository (doi:10.1016/j.jhazmat.2019.121712) one finds LC retention time data, which are given here for 99 molecules.

SMILES strings stand for the structures.

The data set in a line: Thermo Scientific Acclaim RSLC 120 C18, 100 × 2.1 mm, 2.2 µm, 30 °C; A: 90% water + 10% methanol + 0.01% formic acid + 5 mM ammonium formate; B: methanol + 0.01% formic acid + 5 mM ammonium formate; gradient (min/%B) 0.1/1 3/39 14/99.9 16/99.9. Particulars: stereoisomer not certain.
Regarding `CC1NCCOC1c1ccccc1` (centres undefined), the LC retention time was 4.14 min.
Next, `NCC1(CC(=O)O)CCCCC1`: 3.78 min; `Cc1cccc(C)c1OCC(=O)NC(Cc1ccccc1)C(O)CC(Cc1ccccc1)NC(=O)C(C(C)C)N1CCCNC1=O` (centres undefined): 11.8 min.
Turning to `CCCc1nn(C)c2c(=O)[nH]c(-c3cc(S(=O)(=O)N4CCN(CC)CC4)ccc3OCC)nc12`, the LC retention time amounted to 7.84 min.
In the case of `CCOP(=S)(OCC)ON=C(C#N)c1ccccc1` it was 11.2 min; in that of `Cc1onc(-c2ccccc2)c1-c1ccc(S(N)(=O)=O)cc1`, 7.37 min; in that of `CCOC(=O)N(C)C(=O)CSP(=S)(OCC)OCC`, 10.2 min.
Next, `c1ccc(CC2=NCCN2)cc1`: 3.28 min.
For `CON=C(C(=O)NC1C(=O)N2C(C(=O)O)=C(CSC(=O)c3ccco3)CSC12)c1csc(N)n1` (centres undefined), the LC retention time was determined as 5.44 min.
In the case of `COC12CCC3(CC1C(C)(O)C(C)(C)C)C1Cc4ccc(O)c5c4C3(CCN1CC1CC1)C2O5` (centres undefined) it was 7.96 min; in that of `C=C1CC2C(CCC3(C)C(=O)CCC23)C2(C)C=CC(=O)C=C12` (centres undefined), 9.03 min.
On to `CNC(=O)CSP(=S)(OC)OC`, for which the LC retention time turned out to be 5.23 min.
In the case of `CC1CCC2(OC1)OC1CC3C4CC=C5CC(O)CCC5(C)C4CCC3(C)C1C2C` (centres undefined) it was 15.1 min.
Next, `NC(CO)C(=O)NNCc1ccc(O)c(O)c1O` (centres undefined): 1.38 min; `CN(C)C(=N)N=C(N)N`: 1.39 min.
Take `CN(C)CCc1c[nH]c2ccc(Cn3cncn3)cc12`: the LC retention time is 3.49 min.
In the case of `C#CC1(O)CCC2C3CCC4=CC(=O)CCC4C3CCC21C` (centres undefined) it was 9.15 min; in that of `CCC(C)N(C(=O)SCc1ccccc1)C(C)CC` (centres undefined), 12.8 min; in that of `COc1ccc(CC(C)N)cc1` (centres undefined), 4.34 min.
In the case of `CC(C)NCC(O)c1ccc(N)c(C#N)c1` (centres undefined) it was 2.99 min.
With `CC(C)OP(=O)(OC(C)C)SCc1ccccc1`, the LC retention time came to 10.6 min.
In the case of `O=C(O)c1ccccc1C(=O)Nc1cccc2ccccc12` it was 6.75 min; in that of `COc1ccccc1OCCNCC(O)COc1cccc2[nH]c3ccccc3c12` (centres undefined), 6.91 min.
With `CCCOC(C(=O)OC1CCN(C)CC1)(c1ccccc1)c1ccccc1`, the LC retention time is 9.36 min.
Turning to `CNCC(c1ccc(OC)cc1)C1(O)CCCCC1` (centres undefined), the LC retention time was 6.18 min.
As for `CCOP(=S)(OCC)Oc1cnccn1`, the LC retention time was 8.35 min.
Next, `CCCCCn1cc(C(=O)c2cccc3ccccc23)c2cccc(O)c21`: 11.8 min; `CCNCC(O)c1cccc(O)c1` (centres undefined): 2.66 min.
In the case of `CCCCC1(COC(=O)CCC(=O)O)C(=O)N(c2ccccc2)N(c2ccccc2)C1=O` it was 9.61 min; in that of `CCOc1ccc(NC(C)=O)cc1`, 5.93 min.
For the molecule `COP(=S)(OC)Oc1ccc([N+](=O)[O-])cc1`, the LC retention time stood at 9.24 min.
In the case of `CCC(=O)C1(c2cccc(O)c2)CCN(C)CC1` it was 4.26 min; in that of `O=C1OCCN1N=Cc1ccc([N+](=O)[O-])o1`, 4.19 min; in that of `NC1CCc2cc3c(cc2C1)OCO3` (centres undefined), 4.32 min.
On to `Cc1ccc(C(=O)C(C)N2CCCC2)cc1` (centres undefined), for which the LC retention time came to 4.76 min.
In the case of `CNCC(O)c1ccc(O)c(O)c1` (centres undefined), the LC retention time came out at 1.38 min.
In the case of `CN1C2CCC1CC(OC(=O)C(CO)c1ccccc1)C2` (centres undefined) it was 4.36 min; in that of `CN1CCN(C(c2ccccc2)c2ccccc2)CC1`, 6.94 min; in that of `CNC(=O)Oc1cccc2ccccc12`, 7.46 min.
Regarding `COP(=O)(OC)OC(C)=CC(=O)N(C)C`, the LC retention time is 4.5 min.
Next, `CCCc1nn(C)c2c(=S)nc(-c3cc(S(=O)(=O)N4CCN(CCO)CC4)ccc3OCC)[nH]c12`: 10.5 min; `COP(=O)(OC)OC(C)=CC(=O)OC(C)c1ccccc1` (centres undefined): 9.39 min; `COc1ccc2c3c1OC1C(=O)CCC4C(C2)N(C)CCC314` (centres undefined): 3.69 min.
In the case of `CCOC(=O)CSc1nc(C(C)(C)C)nn1C(=O)N(C)C` it was 6.38 min; in that of `c1coc(-c2nc3ccccc3[nH]2)c1`, 6.48 min.
In the case of `O=C(O)c1cc(N=Nc2ccc(O)c(C(=O)O)c2)ccc1O` it was 5.66 min.
For `NC(N)=Nc1nc(CSCCC(N)=NS(N)(=O)=O)cs1`, the LC retention time worked out at 3.24 min.
As for `CNC(C)C(=O)c1ccc(C)cc1` (centres undefined), the LC retention time stood at 4.49 min.
In the case of `CCOC(=O)C1=NOC(c2ccccc2)(c2ccccc2)C1` it was 10.7 min; in that of `OCCOCCN1CCN(C2=Nc3ccc(O)cc3Sc3ccccc32)CC1`, 4.99 min; in that of `CN(C)CCOC(C)(c1ccccc1)c1ccccn1` (centres undefined), 5.18 min.
As to `CCCN(CCC)CCc1cccc2c1CC(=O)N2`, the LC retention time was found to be 3.98 min.
Next, `CCOc1cc(OP(=S)(OC)OC)nc(CC)n1`: 11 min; `CSc1ccc2c(c1)N(CCC1CCCCN1C)c1ccccc1S2` (centres undefined): 9.34 min.
Next, `CSc1ccc(C(=O)c2[nH]c(=O)[nH]c2C)cc1`: 6.67 min.
In the case of `Cc1ccccc1CC(C)N` (centres undefined) it was 5.17 min; in that of `CC(C(=O)c1ccccc1)N1CCCC1` (centres undefined), 4.01 min; in that of `S=c1[nH]c2ccccc2s1`, 6.89 min.
With `CC(C)NC(=O)c1ccccc1O`, the LC retention time was determined as 7.14 min.
In the case of `COc1cc(OC)nc(NC(=O)NS(=O)(=O)c2cc(NC=O)ccc2C(=O)N(C)C)n1` it was 7.54 min.
Consider `CN(C)CC(c1ccc(O)cc1)C1(O)CCCCC1` (centres undefined), for which the LC retention time was 4.76 min.
In the case of `CC12C=CC(=O)C=C1CCC1C2C(O)CC2(C)C1CCC2(O)C(=O)CO` (centres undefined) it was 7.84 min.
In the case of `CCOP(=S)(OCC)Oc1cnc2ccccc2n1` it was 10.8 min; in that of `CC(C(O)c1ccccc1)N(C)C` (centres undefined), 3.73 min.
As for `Nc1ccc(S(=O)(=O)c2ccc(N)cc2)cc1`, the LC retention time was 4.13 min.
Next, `NS(=O)(=O)c1cc(C(=O)O)cc(N2CCCC2)c1Oc1ccccc1`: 7.17 min; `CCCOc1ccc(S(=O)(=O)N2CCN(CC)CC2)cc1-c1nc(=S)c2c([nH]1)c(CCC)nn2C`: 10.5 min.
Next, `COc1ncnc(NS(=O)(=O)c2ccc(N)cc2)c1OC`: 4.75 min.
Next, `COC(=O)c1ccccc1C(=O)c1ccc(OCCN2CCCCC2)cc1`: 5.44 min.
In the case of `Nc1nc(N)nc(N)n1`, the LC retention time is 1.45 min.
Take `CNCC(C)CN1c2ccccc2Sc2ccc(OC)cc21` (centres undefined): the LC retention time was found to be 8.33 min.
`CCCc1nn(C)c2c(=O)[nH]c(-c3cc(C(=O)CN4CCN(C)CC4)ccc3OCC)nc12`: the LC retention time was 6.99 min.
Next, `COc1cnc(NS(=O)(=O)c2ccc(N)cc2)nc1`: 4.18 min; `NCCc1ccc(O)cc1`: 2.28 min; `CCCNCC(O)COc1ccccc1C(=O)CCc1ccccc1` (centres undefined): 7.81 min.
Turning to `CC=C1CC(C)C(O)(CO)C(=O)OCC2=CC[N+]3([O-])CCC(OC1=O)C23` (centres undefined), the LC retention time turned out to be 4.33 min.
Next, `CC(CN(C)C)CN1c2ccccc2Sc2ccccc21` (centres undefined): 8.1 min.
`CCOP(=O)(SC(C)CC)SC(C)CC` (centres undefined): the LC retention time was 11.5 min.
Next, `CC1=C(C)S(=O)(=O)CCS1(=O)=O`: 3.73 min; `CC(C)N1C(=O)c2ccccc2NS1(=O)=O`: 5.22 min; `CCOC(=O)C(CCc1ccccc1)NC(C)C(=O)N1Cc2ccccc2CC1C(=O)O` (centres undefined): 9.03 min.
On to `CC(=O)Nc1ccc(S(=O)(=O)Nc2nccs2)cc1`, for which the LC retention time was 4.24 min.
Take `COc1ccc(-c2ccccc2)cc1NNC(=O)OC(C)C`: the LC retention time stood at 9.87 min.
In the case of `COc1ccc(Cc2cnc(N)nc2N)cc1OC` it was 3.88 min; in that of `COP(=S)(NC(C)C)Oc1ccccc1C(=O)OC(C)C` (centres undefined), 11.7 min; in that of `COP(=O)(OC)Oc1ccc([N+](=O)[O-])cc1`, 6.36 min.
Next, `CCCCCn1cc(C(=O)c2ccc(OC)c3ccccc23)c2ccccc21`: 12.7 min; `CN1CCN(C)C1=O`: 3.53 min; `CNC(=O)ON=C(SC)C(=O)N(C)C`: 3.77 min.
With `NC(N)=NC(N)=NCCc1ccccc1`, the LC retention time was determined as 4.38 min.
In the case of `Cc1cc(C)c(C2=C(OC(=O)CC(C)(C)C)C3(CCCC3)OC2=O)c(C)c1` it was 12.8 min; in that of `CCc1cc2c(s1)-n1c(C)nnc1CN=C2c1ccccc1`, 8.43 min.
In the case of `Cc1ccc(N(CC2=NCCN2)c2cccc(O)c2)cc1`, the LC retention time worked out at 5.86 min.
In the case of `O=C(Nc1cccc(C2=NCCN2)c1)Nc1cccc(C2=NCCN2)c1` it was 3.78 min.
In the case of `CCN(CC)C(=O)C(C)Oc1cccc2ccccc12` (centres undefined) it was 10.2 min; in that of `COc1cc(C(=O)OCCCN(C)CCN(C)CCCOC(=O)c2cc(OC)c(OC)c(OC)c2)cc(OC)c1OC`, 7.54 min.
Next, `CCc1cccc(C)c1N1C(=O)COCC1C` (centres undefined): 7.89 min; `CCCc1nn(C)c2c(=O)[nH]c(-c3cc(C(=O)CN4CCN(CC)C(=O)C4)ccc3OCC)nc12`: 9.09 min; `CCCCCCCCCCCCOCCOCCOCCOCCO`: 13.5 min.
